According to the supplement of paper PMC10307832:

Columns and labels:
Assay in all cases: relative viability (nuclei count vs DMSO), 5 days (fraction); higher = more cells survive
Shikonin + Trametinib = compound: CC(C)=CC[C@@H](O)C1=CC(=O)c2c(O)ccc(O)c2C1=O [Shikonin] + CC(=O)Nc1cccc(-n2c(=O)n(C3CC3)c(=O)c3c(Nc4ccc(I)cc4F)n(C)c(=O)c(C)c32)c1 [Trametinib] (partner 0.02 µM)
In short: (§1)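 For relative viability, nuclei counts in treated wells were divided by those in vehicle wells. Lung cancer cell lines had been pin-tool dosed in 1536-well plates the day after seeding and cultured for 5 days, then fixed and stained in one step (final 0.05% Triton X-100, 1% formaldehyde, 1 ug/ml Hoechst) and imaged at 4×. Doses were one drug alone or a fixed anchor-drug dose plus five library-drug doses (not always all listed) in √10 steps, and values are duplicate-plate medians.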

Shikonin + Navitoclax = compound: CC(C)=CC[C@@H](O)C1=CC(=O)c2c(O)ccc(O)c2C1=O [Shikonin] + CC1(C)CCC(c2ccc(Cl)cc2)=C(CN2CCN(c3ccc(C(=O)NS(=O)(=O)c4ccc(N[C@H](CCN5CCOCC5)CSc5ccccc5)c(S(=O)(=O)C(F)(F)F)c4)cc3)CC2)C1 [Navitoclax] (partner 0.5 µM)
In short: as §1

Shikonin + Foretinib = compound: CC(C)=CC[C@@H](O)C1=CC(=O)c2c(O)ccc(O)c2C1=O [Shikonin] + COc1cc2c(Oc3ccc(NC(=O)C4(C(=O)Nc5ccc(F)cc5)CC4)cc3F)ccnc2cc1OCCCN1CCOCC1 [Foretinib] (partner 0.25 µM)
In short: as §1

Shikonin + Tozasertib = compound: CC(C)=CC[C@@H](O)C1=CC(=O)c2c(O)ccc(O)c2C1=O [Shikonin] + Cc1cc(Nc2cc(N3CCN(C)CC3)nc(Sc3ccc(NC(=O)C4CC4)cc3)n2)n[nH]1 [Tozasertib] (partner 0.1 µM)
In short: as §1

Q: How did the relative viability (Shikonin + Trametinib; first compound 0.01 µM) turn out when UMC-11 was run?
A: Its relative viability is 0.573.

Q: And the relative viability (Shikonin + Trametinib; first compound 0.1 µM)?
A: The relative viability was 0.802.

Q: And the relative viability (Shikonin + Trametinib; first compound 0.3162 µM)?
A: Its relative viability is 0.656.

Q: What about the relative viability (Shikonin + Trametinib; first compound 1 µM) of the same cell line?
A: The relative viability was 0.793.

Q: And the relative viability (Shikonin + Navitoclax; first compound 0.01 µM)?
A: The relative viability was 0.282.

Q: What about the relative viability (Shikonin + Navitoclax; first compound 0.1 µM) of the same cell line?
A: Its relative viability is 0.324.

Q: And the relative viability (Shikonin + Navitoclax; first compound 0.3162 µM)?
A: The relative viability was 0.31.

Q: What about the relative viability (Shikonin + Navitoclax; first compound 1 µM) of the same cell line?
A: The relative viability was 0.318.

Q: And the relative viability (Shikonin + Foretinib; first compound 0.01 µM)?
A: Its relative viability is 1.02.

Q: And the relative viability (Shikonin + Foretinib; first compound 0.1 µM)?
A: The relative viability was 1.13.

Q: And the relative viability (Shikonin + Foretinib; first compound 0.3162 µM)?
A: Its relative viability is 1.13.

Q: What about the relative viability (Shikonin + Foretinib; first compound 1 µM) of the same cell line?
A: The relative viability was 1.07.

Q: What about the relative viability (Shikonin + Tozasertib; first compound 0.01 µM) of the same cell line?
A: Its relative viability is 0.185.

Q: What about the relative viability (Shikonin + Tozasertib; first compound 0.1 µM) of the same cell line?
A: The relative viability was 0.213.

Q: And the relative viability (Shikonin + Tozasertib; first compound 0.3162 µM)?
A: The relative viability was 0.203.

Q: What about the relative viability (Shikonin + Tozasertib; first compound 1 µM) of the same cell line?
A: The relative viability was 0.169.
